Values after ≈ are worked out from the molar mass of the structure shown. Read-outs that look alike come from different tables or passages of the source.
Tested on: L. donovani promastigotes (NHOM/IN/80/DD8)
Assay: In vitro antileishmanial activity (modified MTT assay)
Type: cell-based, Leishmania donovani
Conditions: for IC50: Leishmania donovani, read-out: IC50 (concentration that decreased cell growth by 50 %)
Procedure: The assay for in vitro antileishmanial activity on culture of L. donovani promastigotes (NHOM/IN/80/DD8) was carried out in 96-well tissue culture plates. The promastigotes culture was maintained at 22 ^οC in modified RPMI 1640 pH 7.4 (without phenol red) with 10 % FCS medium. Drug dilutions were prepared in DMSO and appropriate concentration of each drug was used in triplicate. Plates were incubated at 22 °C for 72 h and evaluated using modified MTT assay, where the conversion of 3-(4,5-dimethylthiazol-2-yl)-2,5-diphenyltetrazolium bromide (MTT) to formazan by mitochondrial enzymes served as an indicator of cell viability and the amount of formazan produced was directly proportional to the number of metabolically active cells. Accordingly, absorbance at 492 nm represented the number of live cells. The concentration that decreased cell growth by 50 % (IC50) was determined by graphic interpolation. Pentamidine and sodium stibogluconate were used as standard drugs (Dutta et al., 2005[11]).
The assay for in vitro antileishmanial activity was carried out on cultures of L. donovani promastigotes. The concentration that decreased cell growth by 50 % (IC50) was determined by graphic interpolation and data obtained depicted in Table 3(Tab. 3).

[1] = L. donovani promastigotes, 72 h at 22 °C, modified MTT, graphic interpolation

SMILES | IC50 (72 h) | other results
O=c1oc2ccccc2c(O)c1C(c1ccc(Cl)cc1)c1c(O)c2ccccc2oc1=O [3b, 3,3'-((4-Chlorophenyl)methylene)bis(4-hydroxy-2H-chromen-2-one)] | 312 µg/mL (≈ 699 µM) | 
O=c1oc2ccccc2c(O)c1C(c1c(Cl)cccc1Cl)c1c(O)c2ccccc2oc1=O [3c, 3,3'-((2,6-Dichlorophenyl)methylene)bis(4-hydroxy-2H-chromen-2-one)] | 320 µg/mL (≈ 665 µM) | 
COc1ccc(C(c2c(O)c3ccccc3oc2=O)c2c(O)c3ccccc3oc2=O)cc1 [3e, 3,3'-((4-Methoxyphenyl)methylene)bis(4-hydroxy-2H-chromen-2-one)] | 218 µg/mL (≈ 492 µM) | 
CN(C)c1ccc(C(c2c(O)c3ccccc3oc2=O)c2c(O)c3ccccc3oc2=O)cc1 [3l, 3,3'-((4-(Dimethylamino)phenyl)methylene)bis(4-hydroxy-2H-chromen-2-one)] | 150 µg/mL (≈ 329 µM) | Effect on L. donovani promastigotes (viability, morphology) (Figure 3): organisms lost its viability as seen by irregular shape morphology
COc1cc(C(c2c(O)c3ccccc3oc2=O)c2c(O)c3ccccc3oc2=O)cc(OC)c1OC [3i, 3,3'-((3,4,5-Trimethoxyphenyl)methylene)bis(4-hydroxy-2H-chromen-2-one)] | 262 µg/mL (≈ 522 µM) | 
O=c1oc2ccccc2c(O)c1C(c1ccccc1)c1c(O)c2ccccc2oc1=O [3a, 3,3'-(Phenylmethylene)bis(4-hydroxy-2H-chromen-2-one)] | 155 µg/mL (≈ 376 µM) | 
O=c1oc2ccccc2c(O)c1C(c1ccc(F)cc1)c1c(O)c2ccccc2oc1=O [3d, 3,3'-((4-Fluorophenyl)methylene)bis(4-hydroxy-2H-chromen-2-one)] | 295 µg/mL (≈ 685 µM) | 
COc1ccc(C(c2c(O)c3ccccc3oc2=O)c2c(O)c3ccccc3oc2=O)cc1OC [3f, 3,3'-((3,4-Dimethoxyphenyl)methylene)-bis(4-hydroxy-2H-chromen-2-one)] | 275 µg/mL (≈ 582 µM) | 
O.O.O.O.O.O.O.O.O.O=C([O-])[C@@H]1[O][Sb](=[O])([O][Sb]2(=[O])[O][C@H]([C@H](O)CO)[C@H](O)[C@H](C(=O)[O-])[O]2)[O][C@H]([C@H](O)CO)[C@@H]1O.[Na+].[Na+].[Na+] (stereo partly drawn) [Sodium stibogluconate, sodium stibogluconate, reference compound] |  | IC50 (concentration that decreased cell growth by 50 %) [1]: 490 µg/mL
COc1cc(C(c2c(O)c3ccccc3oc2=O)c2c(O)c3ccccc3oc2=O)ccc1O [3j, 3,3'-((4-Hydroxy-3-methoxyphenyl)methylene)bis(4-hydroxy-2H-chromen-2-one)] | 198 µg/mL (≈ 431 µM) | 
N#Cc1ccc(C(c2c(O)c3ccccc3oc2=O)c2c(O)c3ccccc3oc2=O)cc1 [3k, 3,3'-((4-Cyanophenyl)methylene)bis(4-hydroxy-2H-chromen-2-one)] | 225 µg/mL (≈ 514 µM) | 
COc1ccc(OC)c(C(c2c(O)c3ccccc3oc2=O)c2c(O)c3ccccc3oc2=O)c1 [3h, 3,3'-((2,5-Dimethoxyphenyl)methylene)bis(4-hydroxy-2H-chromen-2-one)] | 198 µg/mL (≈ 418 µM) | 
N=C(N)c1ccc(OCCCCCOc2ccc(C(=N)N)cc2)cc1 [Pentamidine, pentamidine, reference compound] |  | IC50 [1]: 5.5 µg/mL (≈ 16.2 µM)
COc1ccc(C(c2c(O)c3ccccc3oc2=O)c2c(O)c3ccccc3oc2=O)c(OC)c1 [3g] |  | IC50 (concentration that decreased cell growth by 50 %) [1]: 157.5 µg/mL (≈ 333 µM)

Reference: paper PMC4732513, “Efficient one-pot synthesis, molecular docking and in silico ADME prediction of bis-(4-hydroxycoumarin-3-yl) methane derivatives as antileishmanial agents” (EXCLI Journal, 2015)
